Data published in patent publication US12281304B2, “Compositions and methods for treating and preventing muscular disorders and dystrophies, steroid side effects, and inflammation” (Children's National Medical Center, priority 2018, dated 2025).

Experiments:
[1] = test system: miRNAs in diaphragm muscle of mdx mice; experiment: qRT-PCR of individual miRNAs in diaphragm, validation set (4-month treatment, treadmill-run mdx mice); assay type: in vivo, mouse; conditions: 6 months of age, prednisolone 5 mg/kg, vamorolone 45 mg/kg; for expression of the other seven inflammatory miRNAs: P≤0.05
Source text: Archival muscle samples (diaphragm) from two separate preclinical studies were obtained, with each trial showing a significant benefit from both prednisolone and vamorolone drug treatments (23). Prednisolone was used because it is the active form of prednisone, the current DMD standard of care. The first, “discovery set” of diaphragm muscles was from a prophylactic trial design where 2-week old (postnatal day 15) mdx or wild type control mice received oral dosing for 6 weeks with vehicle (cherry syrup), prednisolone (5 mg/kg), or vamorolone (15 mg/kg) as previously reported (23). The second, “validation set” of diaphragm muscles was from an extended trial in older mice where mdx or wild type mice were subjected to treadmill running to unmask mild phenotypes. Mice in this validation set were treated with either vehicle, prednisolone (5 mg/kg) or vamorolone (45 mg/kg) for four months beginning at two months of age (23). At the endpoint of each trial, diaphragm muscles were harvested and frozen in liquid nitrogen-cooled isopentane.
Specific miRNAs were quantified in the validation set of samples using individual TaqMan assays specific for each miRNA (ThermoFisher; Carlsbad, Calif.) according to the manufacturer's protocol. Assay IDs used include 000468, 001346, 002455, 001280, 000528, 002352, 000464, 002509, and 002248. Total RNA was converted to cDNA using multiplexed RT primers and High Capacity cDNA Reverse Transcription Kit (ThermoFisher; Carlsbad, Calif.). The cDNA was pre-amplified using TaqMan PreAmp Master Mix (ThermoFisher; Carlsbad, Calif.). The miRNAs were then quantified using individual TaqMan assays on an ABI QuantStudio 7 real time PCR machine (Applied Biosystems; Foster City, Calif.).
In the discovery set experiments, levels of each miRNA were quantified in TaqMan low-density arrays using ThermoFisher Cloud software with the Relative Quantification Application (ThermoFisher; Carlsbad, Calif.) tool. Data was analyzed by ANOVA with post-hoc comparison of each group to the mdx vehicle-treated group. […] A P-value of P≤0.05 was set as the significance threshold, without adjustment for multiple comparisons. To reduce false-positive discovery in this setting, an evidence-based approach was used to identify efficacy associated miRNAs where 1) results from the multiple groups were cross-referenced, and 2) all candidate miRNAs identified in this discovery set were then assayed in a separate validation set of mice. For the validation set experiments, levels of each individual miRNA were assayed in samples from a second, independent preclinical trial in adult mdx mice. Data from individual TaqMan Assays was quantified using QuantStudio Real-Time PCR version 1.3 software (Applied Biosystems; Foster City, Calif.). […]

[2] = molecular target: T1, glucocorticoid receptor (GR) (Homo sapiens, UniProt P04150); conditions: cited from earlier work
T1 sequence (P04150 1-777): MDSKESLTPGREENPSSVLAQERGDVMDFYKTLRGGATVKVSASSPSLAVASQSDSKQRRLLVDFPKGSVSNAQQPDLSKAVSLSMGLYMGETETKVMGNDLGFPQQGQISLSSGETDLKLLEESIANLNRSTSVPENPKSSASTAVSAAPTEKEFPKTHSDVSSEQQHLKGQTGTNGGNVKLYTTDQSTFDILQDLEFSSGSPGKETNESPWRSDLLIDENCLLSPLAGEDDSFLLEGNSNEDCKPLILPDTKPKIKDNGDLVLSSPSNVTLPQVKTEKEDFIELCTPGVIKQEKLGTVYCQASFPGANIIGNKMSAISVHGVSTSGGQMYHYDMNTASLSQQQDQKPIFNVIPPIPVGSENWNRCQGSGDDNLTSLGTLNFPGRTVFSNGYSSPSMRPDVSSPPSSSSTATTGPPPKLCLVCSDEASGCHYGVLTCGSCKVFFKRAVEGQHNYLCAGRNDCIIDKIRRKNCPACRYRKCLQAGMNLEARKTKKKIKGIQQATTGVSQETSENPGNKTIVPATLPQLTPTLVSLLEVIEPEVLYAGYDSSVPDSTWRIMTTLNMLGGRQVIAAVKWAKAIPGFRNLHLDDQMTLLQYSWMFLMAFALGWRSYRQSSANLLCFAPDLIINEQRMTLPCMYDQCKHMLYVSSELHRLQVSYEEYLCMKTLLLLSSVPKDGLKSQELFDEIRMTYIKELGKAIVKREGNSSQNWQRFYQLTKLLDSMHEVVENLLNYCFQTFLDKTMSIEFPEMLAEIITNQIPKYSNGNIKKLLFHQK

[3] = test system: mdx mice; conditions: same mdx mice as discovery set; prednisolone 5 mg/kg, vamorolone 15 mg/kg; cited from earlier work
[4] = preclinical mdx mouse and human Phase I trials; cited from earlier work

SMILES	response of miR-301a to drug treatment [1]	expression of the other seven inflammatory miRNAs [1]	binding to the GR [2]	grip strength, muscle pathology and diaphragm inflammation [3]	steroid side effects (stunted growth, immunosuppression, bone loss) [3]	steroidal side effects in comparison to prednisone [4]
C[C@@H]1C[C@H]2[C@@H]3CCC4=CC(=O)C=C[C@]4(C)C3=CC[C@]2(C)[C@@]1(O)C(=O)CO [vamorolone]	did not respond to drug treatment	significant decrease towards healthy wild type levels	high affinity	successfully improved grip strength, muscle pathology, and diaphragm inflammation	successfully avoided these side effects	avoids or has substantially reduced steroidal side effects in comparison to prednisone
C[C@]12C=CC(=O)C=C1CC[C@@H]1[C@@H]2[C@@H](O)C[C@@]2(C)[C@H]1CC[C@]2(O)C(=O)CO [prednisolone]	did not respond to drug treatment	significant decrease towards healthy wild type levels	–	successfully improved grip strength, muscle pathology, and diaphragm inflammation	caused traditional steroid side effects of stunted growth, immunosuppression, and bone loss	–
